Reference: US10624912B2, “Spirocyclic Pyridotriazine Derivatives useful as HIV integrase inhibitors” (priority 2015, dated 2020)
Read-outs that look alike come from different tables or passages of the source.

Tested on: HIV-1
Test: HIV-1 infection assay (antiviral potency, MT4-GFP reporter cells)
Assay type: cell-based
Experimental: HIV-1 replication was monitored using MT4-gag-GFP clone D3 (hereafter designate MT4-GFP), which are MT-4 cells modified to harbor a GFP reporter gene, the expression of which is dependent on the HIV-1 expressed proteins tat and rev. Productive infection of an MT4-GFP cell with HIV-1 results in GFP expression approximately 24 h post-infection.
MT4-GFP cells were maintained at 37° C./5% CO2/90% relative humidity in RPMI 1640 supplemented with 10% fetal bovine serum, 100 U/ml penicillin/streptomycin, and 400 μg/ml G418 to maintain the reporter gene. For infections, MT4-GFP cells were placed in the same medium lacking G418 and infected overnight with H9IIIB or NL4-3 virus at an approximate multiplicity of infection of 0.01 in the same incubation conditions. Cells were then washed and resuspended in either RPMI 1640 containing no serum at 1.6×10^5 cells/mL (serum free conditions), 10% normal human serum at 1.6×10^5 cells/mL (10% NHS conditions) or in 100% normal human serum at 2×10^5 cells/mL (100% NHS conditions). Compound plates were prepared by dispensing compounds taken up in DMSO into wells of 384 well poly D lysine-coated plates (0.2 μl/well) using an ECHO acoustic dispenser. Each compound was tested in a 10 point serial 3-fold dilution (typical final concentrations: 4.2 μM-0.21 nM). Controls included no inhibitor (DMSO only) and a combination of three antiviral agents (efavirenz, indinavir, and the integrase strand transfer inhibitor L-002254051 at final concentrations of 4 μM each). Cells were added (50 μL/well) to compound plates and the infected cells were maintained at 37° C./5% CO2/90% relative humidity.
Infected cells were quantified at two time points, ˜48 h and ˜72 h post-infection, by counting the number of green cells in each well using an Acumen eX3 scanner. The increase in the number of green cells over ˜24 h period gives the reproductive ratio, R0, which is typically 5-15 and has been shown experimentally to be in logarithmic phase (data not shown). Inhibition of R0 is calculated for each well, and IC50 value was determined using non-linear 4-parameter curve fitting.

[1] = Human immunodeficiency virus 1, NL43, MT4-GFP cells infected with H9IIIB or NL4-3 virus, 100% normal human serum, inhibition of reproductive ratio R0, read-out: VIKING IP (nM) with 100% NHS
[2] = Human immunodeficiency virus 1, NL43, MT4-GFP cells infected with H9IIIB or NL4-3 virus, serum free conditions (0% NHS), inhibition of reproductive ratio R0, read-out: VIKING IP (nM) with 0% NHS
[3] = Human immunodeficiency virus 1, NL43, read-out: VIKING IP (nM) with 0% NHS

**Q.** How did the IC50 [1] turn out when CCOP(=O)(CCN1C(=O)c2c(O)c(=O)c(C(=O)NCc3ccc(F)cc3F)cn2N(C)C12CCOC2)OCC (single isomer, unassigned) [Compound 45] was run?
**A.** 118 nM

**Q.** What about the IC50 [2] of the same molecule?
**A.** 2.9 nM

**Q.** With CN1n2cc(C(=O)NCc3ccc(F)cc3F)c(=O)c(O)c2C(=O)N(CCP(=O)(O)O)C12CCOC2 (single isomer, unassigned) [Compound 46] as the molecule, how does the IC50 [1] read?
**A.** 775 nM

**Q.** What about the IC50 [2] of the same molecule?
**A.** 92.1 nM

**Q.** For CN1C(=O)c2c(O)c(=O)c(C(=O)NCc3ccc(F)cc3F)cn2N(CCP(=O)(O)O)[C@]12CCOC2 (single isomer, unassigned) [Compound 9], which IC50 [1] is on record?
**A.** 961 nM

**Q.** And the IC50 [2]?
**A.** 23.3 nM

**Q.** With CC(C)OC(=O)OCOP(=O)(CCCN1C(=O)c2c(O)c(=O)c(C(=O)NCc3ccc(F)cc3F)cn2N(CCP(=O)(OCOC(=O)OC(C)C)OCOC(=O)OC(C)C)C12CCOC2)OCOC(=O)OC(C)C (racemic) [Compound 49] as the molecule, how does the IC50 [1] read?
**A.** 8.8 nM

**Q.** And the IC50 [2]?
**A.** 0.3 nM

**Q.** How did the IC50 [3] turn out when CC(C)OC(=O)[C@H](C)NP(=O)(CCN1C(=O)c2c(O)c(=O)c(C(=O)NCc3ccc(F)cc3F)cn2N(C)C12CCOC2)Oc1ccccc1 (single isomer, unassigned) [Compound 48] was run?
**A.** 23.8 nM

**Q.** How did the IC50 [3] turn out when CC(C)OC(=O)[C@H](C)NP(=O)(CCN1n2cc(C(=O)NCc3ccc(F)cc3F)c(=O)c(O)c2C(=O)N(C)[C@@]12CCOC2)Oc1ccccc1 (some centres unmarked) [Compound 15] was run?
**A.** 3.9 nM

**Q.** Which IC50 [1] does the source give for CC(C)OC(=O)OCOP(=O)(CCN1n2cc(C(=O)NCc3ccc(F)cc3F)c(=O)c(O)c2C(=O)N(C)[C@@]12CCOC2)OCOC(=O)OC(C)C [Compound 11] here?
**A.** 1.5 nM

**Q.** And the IC50 [2]?
**A.** 0.05 nM

**Q.** What does the source list for CC(C)OC(=O)OCOP(=O)(CCN1C(=O)c2c(O)c(=O)c(C(=O)NCc3ccc(F)cc3F)cn2N(C)C12CCOC2)OCOC(=O)OC(C)C (single isomer, unassigned) [Compound 47]?
**A.** IC50 [1]: 106 nM; IC50 [2]: 2.9 nM

**Q.** How did the IC50 [1] turn out when CCOP(=O)(CCN1C(=O)c2c(O)c(=O)c(C(=O)NCc3ccc(F)cc3F)cn2N(C)C12CCOC2)OCC (centres unmarked) [Compound 40] was run?
**A.** 92.6 nM

**Q.** And the IC50 [2]?
**A.** 3.6 nM

**Q.** For CN1n2cc(C(=O)NCc3ccc(F)cc3F)c(=O)c(O)c2C(=O)N(CCP(=O)(O)O)C12CCOC2 (centres unmarked) [Compound 42], which IC50 [1] is on record?
**A.** 447 nM

**Q.** What about the IC50 [2] of the same molecule?
**A.** 54.8 nM

**Q.** Which IC50 [3] does the source give for CC(C)OC(=O)[C@H](C)NP(=O)(CCN1n2cc(C(=O)NCc3ccc(F)cc3F)c(=O)c(O)c2C(=O)N(C)[C@]12CCOC2)Oc1ccccc1 (some centres unmarked) [Compound 16] here?
**A.** 3.7 nM

**Q.** CCCOP(=O)(CCN1n2cc(C(=O)NCc3ccc(F)cc3F)c(=O)c(O)c2C(=O)N(C)[C@]12CCOC2)OCC (single isomer, unassigned) [Compound 6] was tested. Which IC50 [1] did it give?
**A.** 45.9 nM

**Q.** What about the IC50 [2] of the same molecule?
**A.** 2 nM

**Q.** What does the source list for CC(C)OC(=O)OCOP(=O)(O)CCN1n2cc(C(=O)NCc3ccc(F)cc3F)c(=O)c(O)c2C(=O)N(C)[C@]12CCOC2 [Compound 14]?
**A.** IC50 [1]: 89 nM; IC50 [2]: 1.6 nM

**Q.** For CC(C)OC(=O)OCOP(=O)(O)CCN1n2cc(C(=O)NCc3ccc(F)cc3F)c(=O)c(O)c2C(=O)N(C)[C@@]12CCOC2 [Compound 12], which IC50 [1] is on record?
**A.** 156 nM

**Q.** And the IC50 [2]?
**A.** 0.8 nM

**Q.** What does the source list for CN1C(=O)c2c(O)c(=O)c(C(=O)NCc3ccc(F)cc3F)cn2N(CCP(=O)(O)O)[C@@]12CCOC2 (single isomer, unassigned) [Compound 10]?
**A.** IC50 [1]: 449 nM; IC50 [2]: 14.4 nM

**Q.** Which results are given for CC(C)OC(=O)OCOP(=O)(CCN1C(=O)c2c(O)c(=O)c(C(=O)NCc3ccc(F)cc3F)cn2N(C)C12CCOC2)OCOC(=O)OC(C)C (centres unmarked) [Compound 43]?
**A.** IC50 [1]: 43.4 nM; IC50 [2]: 1.2 nM

**Q.** With CC(C)OC(=O)OCOP(=O)(CCN1n2cc(C(=O)NCc3ccc(F)cc3F)c(=O)c(O)c2C(=O)N(C)[C@]12CCOC2)OCOC(=O)OC(C)C [Compound 13] as the molecule, how does the IC50 [1] read?
**A.** 1.8 nM

**Q.** And the IC50 [2]?
**A.** 0.04 nM

**Q.** For CC(C)OC(=O)[C@H](C)NP(=O)(CCN1C(=O)c2c(O)c(=O)c(C(=O)NCc3ccc(F)cc3F)cn2N(C)C12CCOC2)Oc1ccccc1 (some centres unmarked) [Compound 44], which IC50 [3] is on record?
**A.** 13.4 nM
